In general, melting point refers to the temperature of the solid-liquid transition.

For the compound `CCCc1nc2c(N)nc3ccccc3c2n1CCc1cc(-c2ccc(F)cc2)no1` [Example 34, 1-{2-[3-(4-Fluorophenyl)isoxazol-5-yl]ethyl}-2-propyl-1H-imidazo[4,5-c]quinolin-4-amine], the melting point is 208 to 209 °C.

Consider `Cc1nc(N)c2nc(CO)n(Cc3cc(-c4ccc(F)cc4)no3)c2c1C` [Example 20, (4-Amino-1-{[3-(4-fluorophenyl)isoxazol-5-yl]methyl}-6,7-dimethyl-1H-imidazo[4,5-c]pyridin-2-yl)methanol], for which the melting point was in the range of 164 to 165 °C.

`CCc1nc2c(N)nc(C)c(C)c2n1Cc1cc(-c2ccc(F)cc2)no1` [Example 21, 2-Ethyl-1-{[3-(4-fluorophenyl)isoxazol-5-yl]methyl}-6,7-dimethyl-1H-imidazo[4,5-c]pyridin-4-amine] yielded a melting point of 255 to 256 °C.

Take `Nc1nc2c(c3c1ncn3Cc1cc(-c3ccc(F)cc3)no1)NCCC2` [Example 17, 1-{[3-(4-Fluorophenyl)isoxazol-5-yl]methyl}-6,7,8,9-tetrahydro-1H-imidazo[4,5-c][1,5]naphthyridin-4-amine]: the melting point lay in the range of 227 to 228 °C.

The compound `CCCCc1cc(Cn2cnc3c(N)nc4ccccc4c32)no1` [Example 35, 1-[(5-Butylisoxazol-3-yl)methyl]-1H-imidazo[4,5-c]quinolin-4-amine] had a melting point of 201 to 203 °C.

On to `CCOCc1nc2c(N)nc3ccccc3c2n1Cc1cc(-c2cccnc2)no1` [Example 5, 2-(Ethoxymethyl)-1-[(3-pyridin-3-ylisoxazol-5-yl)methyl]-1H-imidazo[4,5-c]quinolin-4-amine], for which the melting point is 240 to 242 °C.

For the compound `CCOCc1nc2c(N)nc(C)c(C)c2n1Cc1cc(-c2ccc(F)cc2)no1` [Example 19, 2-(Ethoxymethyl)-1-{[3-(4-fluorophenyl)isoxazol-5-yl]methyl}-6,7-dimethyl-1H-imidazo[4,5-c]pyridin-4-amine], the melting point lay within 246 to 247 °C.

Turning to `CCOCc1nc2c(N)nc3ccccc3c2n1Cc1cc(-c2ccccc2)no1` [Example 3, 2-(Ethoxymethyl)-1-[(3-phenylisoxazol-5-yl)methyl]-1H-imidazo[4,5-c]quinolin-4-amine], the melting point lay within 215 to 216 °C.

`CCOCc1nc2c(N)nc3ccccc3c2n1CCCc1cc(-c2ccccc2)no1` [Example 7, 2-(Ethoxymethyl)-1-[3-(3-phenylisoxazol-5-yl)propyl]-1H-imidazo[4,5-c]quinolin-4-amine]: the melting point lay in the range of 171 to 172 °C.

The compound `CCOCc1nc2c(N)nc3ccccc3c2n1CC1CC(c2ccccc2)=NO1` (stereo not shown) [Example 2, 2-(Ethoxymethyl)-1-[(3-phenyl-4,5-dihydroisoxazol-5-yl)methyl]-1H-imidazo[4,5-c]quinolin-4-amine] gave a melting point of 235 to 237 °C.

Turning to `Cc1nc2c(N)nc3cccnc3c2n1Cc1cc(-c2ccc(F)cc2)no1` [Example 13, 1-{[3-(4-Fluorophenyl)isoxazol-5-yl]methyl}-2-methyl-1H-imidazo[4,5-c][1,5]naphthyridin-4-amine], the melting point was 239 to 240 °C.

`CCOCc1nc2c(N)nc3ccccc3c2n1CCN1C(C)=NOC1(C)C` [Example 10, 2-Ethoxymethyl-1-[2-(3,5,5-trimethyl-1,2,4-oxadiazol-4(5H)-yl)ethyl]-1H-imidazo[4,5-c]quinolin-4-amine] showed a melting point of 204 to 205 °C.

The compound `Nc1nc2ccccc2c2c1ncn2Cc1cc(-c2ccc(F)cc2)no1` [Example 25, 1-{[3-(4-Fluorophenyl)isoxazol-5-yl]methyl}-1H-imidazo[4,5-c]quinolin-4-amine] had a melting point of 259 to 260 °C.

For `Cc1nc(N)c2nc(C)n(Cc3cc(-c4ccc(F)cc4)no3)c2c1C` [Example 22, 1-{[3-(4-Fluorophenyl)isoxazol-5-yl]methyl}-2,6,7-trimethyl-1H-imidazo[4,5-c]pyridin-4-amine], the melting point is 278 to 279 °C.

As for `CCOCc1nc2c(N)nc3ccccc3c2n1CCCc1cc(C)no1` [Example 8, 2-(Ethoxymethyl)-1-[3-(3-methylisoxazol-5-yl)propyl]-1H-imidazo[4,5-c]quinolin-4-amine], the melting point was in the range of 163 to 164 °C.

The compound `CCCc1nc2c(N)nc(C)c(C)c2n1Cc1cc(-c2ccc(F)cc2)no1` [Example 23, 1-{[3-(4-Fluorophenyl)isoxazol-5-yl]methyl}-6,7-dimethyl-2-propyl-1H-imidazo[4,5-c]pyridin-4-amine] yielded a melting point of 227 to 229 °C.

Turning to `CCOCc1nc2c(N)nc3ccccc3c2n1CCN1C(C)=NOC12CCCC2` [Example 16, 2-(Ethoxymethyl)-1-[2-(3-methyl-1-oxa-2,4-diazaspiro[4,4]non-2-en-4-yl)ethyl]-1H-imidazo[4,5-c]quinolin-4-amine], the melting point fell in the range of 211 to 213 °C.

In the case of `CCCc1nc2c(N)nc3cccnc3c2n1Cc1cc(-c2ccc(F)cc2)no1` [Example 14, 1-{[3-(4-Fluorophenyl)isoxazol-5-yl]methyl}-2-propyl-1H-imidazo[4,5-c][1,5]naphthyridin-4-amine], the melting point lay in the range of 238 to 239 °C.

`Nc1nc2cccnc2c2c1nc(CO)n2Cc1cc(-c2ccc(F)cc2)no1` [Example 15, (4-Amino-1-{[3-(4-fluorophenyl)isoxazol-5-yl]methyl}-1H-imidazo[4,5-c][1,5]naphthyridin-2-yl)methanol] returned a melting point of 247 to 248 °C.

On to `CCOCc1nc2c(N)nc3cccnc3c2n1Cc1cc(-c2ccc(F)cc2)no1` [Example 12, 2-(Ethoxymethyl)-1-{[3-(4-fluorophenyl)isoxazol-5-yl]methyl}-1H-imidazo[4,5-c][1,5]naphthyridin-4-amine], for which the melting point fell in the range of 190 to 191 °C.

Turning to `CCOCc1nc2c(N)nc(C)c(C)c2n1Cc1cc(-c2cccnc2)no1` [Example 9, 2-(Ethoxymethyl)-6,7-dimethyl-1-[(3-pyridin-3-ylisoxazol-5-yl)methyl]-1H-imidazo[4,5-c]pyridin-4-amine], the melting point fell in the range of 189 to 191 °C.

Take `CCOCc1nc2c(Cl)nc3ccccc3c2n1Cc1cc(-c2ccc(F)cc2)no1` [Example 29, 4-Chloro-2-(ethoxymethyl)-1-{[3-(4-fluorophenyl)isoxazol-5-yl]methyl}-1H-imidazo[4,5-c]quinoline]: the melting point is 189 to 190 °C.

The compound `Nc1nc2ccccc2c2c1nc(CO)n2Cc1cc(-c2ccc(F)cc2)no1` [Example 31, (4-Amino-1-{[3-(4-fluorophenyl)isoxazol-5-yl]methyl}-1H-imidazo[4,5-c]quinolin-2-yl)methanol] returned a melting point of 262 to 263 °C.

Take `Nc1nc2cccnc2c2c1ncn2Cc1cc(-c2ccc(F)cc2)no1` [Example 11, 1-{[3-(4-Fluorophenyl)isoxazol-5-yl]methyl}-1H-imidazo[4,5-c][1,5]naphthyridin-4-amine]: the melting point was in the range of 265 to 266 °C.

Turning to `CCOCc1nc2c(N)nc3ccccc3c2n1CC1CC(C)=NO1` (stereo not shown) [Example 1, 2-(Ethoxymethyl)-1-[(3-methyl-4,5-dihydroisoxazol-5-yl)methyl]-1H-imidazo[4,5-c]quinolin-4-amine], the melting point is 204 to 205 °C.

Compound `Nc1nc2ccccc2c2c1nc(CF)n2Cc1cc(-c2ccc(F)cc2)no1` [Example 32, 2-(Fluoromethyl)-1-{[3-(4-fluorophenyl)isoxazol-5-yl]methyl}-1H-imidazo[4,5-c]quinolin-4-amine] came in with a melting point of 192 to 193 °C.

Compound `CCOCc1nc2c(N)nc3ccccc3c2n1CCc1cc(-c2ccc(F)cc2)no1` [Example 33, 2-(Ethoxymethyl)-1-{2-[3-(4-fluorophenyl)isoxazol-5-yl]ethyl}-1H-imidazo[4,5-c]quinolin-4-amine] gave a melting point of 180 to 181 °C.

The compound `Cc1nc2c(N)nc3ccccc3c2n1Cc1cc(-c2ccc(F)cc2)no1` [Example 28, 1-{[3-(4-Fluorophenyl)isoxazol-5-yl]methyl}-2-methyl-1H-imidazo[4,5-c]quinolin-4-amine] returned a melting point of 294 to 296 °C.

`CCCc1nc2c(N)nc3ccccc3c2n1Cc1cc(-c2ccc(F)cc2)no1` [Example 27, 1-{[3-(4-Fluorophenyl)isoxazol-5-yl]methyl}-2-propyl-1H-imidazo[4,5-c]quinolin-4-amine] had a melting point of 226 to 227 °C.

On to `CCOCc1nc2c(N)nc3ccccc3c2n1Cc1cc(-c2ccccc2)on1` [Example 37, 2-(Ethoxymethyl)-1-[(5-phenylisoxazol-3-yl)methyl]-1H-imidazo[4,5-c]quinolin-4-amine], for which the melting point was in the range of 221 to 223 °C.

`CCc1nc2c(N)nc3ccccc3c2n1Cc1cc(-c2ccc(F)cc2)no1` [Example 26, 2-Ethyl-1-{[3-(4-fluorophenyl)isoxazol-5-yl]methyl}-1H-imidazo[4,5-c]quinolin-4-amine] came in with a melting point of 232 to 233 °C.

`CCOCc1nc2c(N)nc3ccccc3c2n1CCCc1cc(-c2cccnc2)no1` [Example 6, 2-(Ethoxymethyl)-1-[3-(3-pyridin-3-ylisoxazol-5-yl)propyl]-1H-imidazo[4,5-c]quinolin-4-amine] showed a melting point of 199 to 200 °C.

With `CCCc1nc2c(N)nc3ccccc3c2n1Cc1cc(-c2cccnc2)on1` [Example 36, 2-Propyl-1-[(5-pyridin-3-ylisoxazol-3-yl)methyl]-1H-imidazo[4,5-c]quinolin-4-amine], the melting point lay within 206 to 207 °C.

As for `Fc1ccc(-c2cc(Cn3cnc4c(Cl)nc5ccccc5c43)on2)cc1` [Example 24, 4-Chloro-1-{[3-(4-fluorophenyl)isoxazol-5-yl]methyl}-1H-imidazo[4,5-c]quinoline], the melting point was in the range of 219 to 220 °C.

Turning to `CCOCc1nc2c(N)nc3ccccc3c2n1Cc1cc(C)no1` [Example 4, 2-(Ethoxymethyl)-1-[(3-methylisoxazol-5-yl)methyl]-1H-imidazo[4,5-c]quinolin-4-amine], the melting point was in the range of 178 to 180 °C.

The compound `CCOCc1nc2c(N)nc3ccccc3c2n1Cc1cc(-c2ccc(F)cc2)no1` [Example 30, 2-(Ethoxymethyl)-1-{[3-(4-fluorophenyl)isoxazol-5-yl]methyl}-1H-imidazo[4,5-c]quinolin-4-amine] yielded a melting point of 203 to 204 °C.

On to `Cc1nc(N)c2ncn(Cc3cc(-c4ccc(F)cc4)no3)c2c1C` [Example 18, 1-{[3-(4-Fluorophenyl)isoxazol-5-yl]methyl}-6,7-dimethyl-1H-imidazo[4,5-c]pyridin-4-amine], for which the melting point lay within 244 to 246 °C.

For the origin of these results see patent publication US7915281B2, “Isoxazole, dihydroisoxazole, and oxadiazole substituted imidazo ring compounds and method” (3M Innovative Properties Company, priority 2004, dated 2011).
